Literature values as cited in patent US20050215521A1, “Modafinil combination therapy for improving sleep quality” (priority 2003, published 2005).
Where a name gives a salt, the structure may show the parent alone.

Tests used:
mice = details: reference agents, scores below 40 of 60 denote behavioral depression
GABA uptake system = details: at concentrations of 5×10^4 M
[1] = tested on: L-glutamate 1-carboxylase; details: at concentrations of 10^−3 M
[2] = target: GABA:2-oxo-glutarate aminotransferase (Homo sapiens, UniProt P80404); details: at concentrations of 10^−3 M
GABA:2-oxo-glutarate aminotransferase, sequence (P80404 29-500): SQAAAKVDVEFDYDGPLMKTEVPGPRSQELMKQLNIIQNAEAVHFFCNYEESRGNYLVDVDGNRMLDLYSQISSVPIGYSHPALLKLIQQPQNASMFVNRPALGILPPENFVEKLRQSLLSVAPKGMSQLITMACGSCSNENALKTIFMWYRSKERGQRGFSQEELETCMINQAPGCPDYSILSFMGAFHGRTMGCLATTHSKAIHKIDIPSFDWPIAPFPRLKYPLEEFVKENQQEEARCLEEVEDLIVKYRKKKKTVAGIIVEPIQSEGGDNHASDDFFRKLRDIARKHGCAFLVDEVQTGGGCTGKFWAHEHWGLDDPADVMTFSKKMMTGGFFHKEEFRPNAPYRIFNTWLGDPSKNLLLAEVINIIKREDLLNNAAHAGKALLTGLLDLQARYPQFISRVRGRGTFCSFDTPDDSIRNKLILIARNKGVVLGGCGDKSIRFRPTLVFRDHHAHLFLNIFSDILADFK

[3] = in vivo
[4] = oral

## NC(=O)C[S+]([O-])C(c1ccccc1)c1ccccc1 (stereo not shown) [Modafinil, 2-[(Diphenylmethyl)sulfinyl]-N-acetamide]
acetone
  solubility in acetone: sparingly or slightly soluble
cyclohexane
  solubility in cyclohexane: insoluble
other
  solubility in methanol: sparingly or slightly soluble
  solubility in water: insoluble

## CCCC(C)(COC(N)=O)COC(N)=O [meprobamate]
mice
  ED100: 300 mg/kg

## CP(=O)(O)CCCN [SKF 97541, 3-aminopropyl(methyl)phosphinic acid]
Dilute aqueous base
  solubility in dilute aqueous base: readily soluble
other
  solubility in water: readily soluble

## Oc1noc2c1CCNC2 [gaboxadol, 4,5,6,7-tetrahydroisoxazolo[5,4-c]pyridin-3-ol]
GABA uptake system
  interaction with the GABA uptake system: did not interact
[1]
  interaction with L-glutamate 1-carboxylase: did not interact
[2]
  interaction with GABA:2-oxo-glutarate aminotransferase: did not interact

## Cc1ccc(-c2nc3ccc(C)cn3c2CC(=O)N(C)C)cc1 [zolpidem tartrate]
other
  solubility in methanol: sparingly soluble
  solubility in water: slightly soluble
Methylene chloride
  solubility in methylene chloride: practically insoluble

## COC(=O)[C@H]1[C@H]2C[C@@H]3c4[nH]c5cc(OC)ccc5c4CCN3C[C@H]2C[C@@H](OC(=O)c2cc(OC)c(OC)c(OC)c2)[C@@H]1OC [reserpine]
mice
  ED100: 50 mg/kg

## CN1C(=O)CN=C(c2ccccc2)c2cc(Cl)ccc21 [diazepam, 7-chloro-1,3-dihydro-1-methyl-5-phenyl-2H-1,4-benzodiazepin-2-one]
mice
  ED100: 50 mg/kg

## zopiclone
Plasma proteins
  binding to plasma proteins: not highly bound
[3]
  absorption from the stomach: well absorbed

## CCC1(c2ccccc2)CCC(=O)NC1=O (stereo not shown) [glutethimide]
mice
  ED100: 300 mg/kg

## CCCC(C)C1(CC)C(=O)NC(=O)NC1=O (stereo not shown) [pentobarbital]
mice
  ED100: 100 mg/kg

## O=C(CCCN1CCC(O)(c2ccc(Cl)cc2)CC1)c1ccc(F)cc1 [haloperidol]
mice
  ED100: 10 mg/kg

## Cc1ccc(-c2nc3ccc(C)cn3c2CC(=O)N(C)C)cc1 [zolpidem, N,N,6-trimethyl-2-(4-methylphenyl)-imidazo[1,2-s]pyridine-3-acetamide]
[4]
  elimination half-life (mean): 2.4 h
[4]; hypnotic action
  duration of action: up to 6 hours
